The values below come from publication PMC7562719, “Discovery of a CNS penetrant small molecule SMN2 splicing modulator with improved tolerability for spinal muscular atrophy” (Scientific Reports, 2020).

One series concerns TK6 cells. The settings on record: positive control 6 µg/mL (21 µM), 3 h + S9 mix. On the procedure:
These articles have been recommended for use in the OECD test guideline (Test No. 487)[49]. For metabolic activation, pre-cultured TK6 cells with the culture medium were supplemented with Sprague–Dawley rat liver mix (S9 mix, IEDA TRADING CORPORATION, Japan) at 3.33 vol%. Then, compound was mixed with the cell suspension and treated under the following treatment conditions: • Short-term treatment for 3 h without S9 mix, followed by a 21-h culture (−S9 mix assay), • Short-term treatment for 3 h with S9 mix, followed by a 21-h culture (+S9 mix assay), or • Continuous treatment for 24 h without S9 mix (24-h assay). For treatment conditions 1 and 2, the cells in each well were centrifuged after the 3-h treatment, the supernatants were discarded, and the cells were washed twice with culture medium. The cells were further cultured with fresh culture medium for 21 h. The compound-treated cells were examined by the unaided eye for precipitation of compound at the start and end of treatment. After treatment, the rest of each cell suspension was centrifuged and then the cells were suspended in a 0.075 mol/L KCl solution at room temperature for 10 min. Then, 25 vol% acetic acid containing methanol was added and the centrifuged cells were fixed. The fixed cells were resuspended in a small amount of 3 vol% acetic acid containing methanol, which was changed two times by centrifugation. Finally, a drop of the cell suspension was transferred onto a slide and dried at room temperature. The slides were stained at room temperature in a 3 vol% Giemsa solution (Merck KGaA) diluted with Sörensen phosphate buffer (1/15 mol/L, pH 6.8, Muto Pure Chemicals Co. Ltd.). Four slides per dose (2 slides per well) were prepared. Each slide was coded randomly. The test was conducted at the following doses of TEC-1. -S9 mix assay: 1.5, 1.7, 1.9, 2.1, 2.3, 2.5, 2.7, 2.9, and 3.1 µg/mL, + S9 mix assay: 1.9, 2.1, 2.3, 2.5, 2.7, 2.9, 3.1, 3.3, and 3.5 µg/mL, 24-h assay: 0.9, 1.1, 1.3, 1.5, 1.7, 1.9, 2.1, 2.3, and 2.5 µg/mL. To perform scoring for compound and negative control groups, the number of cells in the suspensions was counted using a Coulter Counter (Z2; Beckman Coulter, Inc.). The positive control groups were not determined. A portion (0.5 mL) of the cell suspension was diluted with 20 mL of Isoton II, and 0.5 mL of this solution was used for cell counts. The cell number per 1 mL at each culture was calculated by the following formula. Cellnumber/mL=Dilutionfactor×valueof1stcount+valueof2ndcount/2×2
The population doubling (PD) and relative population doubling (RPD) at each concentration was calculated by the following formula. PD=log10cell number at the end of culture/cell number at the start of treatment∗/log102∗:1×10^5cells/mL.
RPD%=PD of the compound-treated group/PD of the negative control group×100 For the treated groups, the 3 consecutive concentrations were selected as follows. […] For all concentrations, 4000 mononuclear cells with cytoplasm were analyzed and the number of cells with micronucleus (micronuclei) was counted using a microscope (× 600). Micronucleus is identified as a round or oval small nucleus in the cytoplasm with the same staining intensity as the main nucleus. The diameter of each micronucleus should be less than 1/2 of the diameter of the main nucleus. Two investigators observed the slides. Each investigator scored 1000 cells for the frequency of micronucleated cells. Data from the two investigators were combined for each culture and the combined data from duplicate cultures were pooled for each concentration for each treatment condition. A cell having one or more micronuclei was recorded as a micronucleated cell.

A further series deals with cynomolgus monkeys. The settings on record: cynomolgus monkey, in vivo; cited from earlier work.
On the set-up of series [1]: method as in PMID 30302786. The settings on record: Phase I clinical trial, 18 mg/individual; cited from earlier work.
Another series concerns FOXM1a. Put plainly: qPCR of FOXM1a variant in GM03813 fibroblasts. In kind it is cell-based, human. The settings on record: 24 h, 200% total target mRNA increase, 95% CI in brackets. On the procedure: (§1) GM03813 fibroblasts, GM24468-derived MNs, NRK-49F, MDCK, CV-1, or NCMDF cells were plated at a density of 0.5 or 1.5 × 10^4, 4 × 10^4, 5 × 10^3, 5 × 10^3, 8 × 10^3, or 6 × 10^3 cells/well on 96-well plates, respectively. After approximately 6 h, the medium was added with the same volume of culture medium containing each compound at the concentration of 0.06, 0.2, 0.6, 0.2, and 6 µM. The final concentration of DMSO was adjusted to 0.1% in culture condition.
(§2) All cells were treated with above compounds for 24 h and washed once with Dulbecco’s Phosphate-Buffered Saline without Ca and Mg [D-PBS (–)] (Wako or Nakarai Tesque). In case of using GM03813 or GM24468-derived MNs, cell lysis and reverse transcription were carried out using SuperPrep Cell Lysis & RT Kit for qPCR in accordance with manufacturer’s recommendations (Toyobo, Japan). qPCR was performed using THUNDERBIRD Probe qPCR Mix (Toyobo). The final concentrations of primers and probes were adjusted to 0.4 µM and 0.15 µM, respectively (Supplementary Table 1). Cycle conditions were as follows; 95 °C for 1 min; followed by 40 cycles of denaturation at 95 °C for 15 s; annealing and elongation at 60 °C for 1 min in the ViiA7 RT-PCR system (Thermo Fisher Scientific). The copy numbers of each target were normalized to those of GAPDH.

Details of series [2]: method as in PMID 30044619. The settings on record: in vitro and in vivo; cited from earlier work.
The test system of another series is FOXM1b. The series is described as follows: qPCR of FOXM1b/c variant in GM03813 fibroblasts. Type of series: cell-based, human. On the procedure: as §1, §2
The next series has as its system FOXM1. The series is described as follows: qPCR of FOXM1 transcripts in cynomolgus monkey fibroblasts (NCMDF). The settings on record: 24 h. In kind it is cell-based. On the procedure: as §1
In the instances of using NRK-49F, MDCK, CV-1 or NCMDF, cell lysis and reverse transcription were carried out using Custom Cells to CT Lysis Components (Ambion) and Cells-to-CT RT Components (Ambion), each in accordance with manufacturer’s recommendations. qPCR was conducted using TaqMan Fast Advanced Master Mix. The final concentrations of primers and probes were adjusted to 0.4 µM and 0.15 µM, respectively. Cycle conditions were as follows; 50 °C for 2 min and 95 °C for 2 s; followed by 40 cycles of denaturation at 95 °C for 1 s; annealing and elongation at 60 °C for 20 s in the ABI7900HT RT-PCR system (Applied Biosystems, USA). The relative quantification in gene expression was determined using the 2−ΔΔCt method.
(In general: Quantitative PCR measures a nucleic acid by following its amplification.)

The next series deals with FL-SMN2 mRNA. The series is described as follows: qPCR of FL-SMN2 transcripts in SMA type II fibroblasts (GM03813). In kind it is cell-based, human. The settings on record: 24 h, 50% total FL-SMN2 mRNA increase, normalized to GAPDH, 95% CI in brackets. On the procedure:
as §1, §2

A further series has as its system FOXM1ΔC. Put plainly: qPCR of FOXM1ΔC variant in GM03813 fibroblasts. Type of series: cell-based, human. The settings on record: 24 h, 300% total target mRNA increase, 95% CI in brackets. On the procedure: as §1, §2

Marks after values point to notes of the source that are not given here.

For the molecule `O=P1(N(CCCl)CCCl)NCCCO1` (stereo not shown) [CP, cyclophosphamide, reference compound], in the series with TK6 cells, the “Micronucleated cells Well 1” value is 39 and the “Micronucleated cells Well 2” value is reported as 46. Moreover, in the series on TK6 cells (counted in 4000 cells), the “Micronucleated cells Total” value was determined as 85. Besides, the “Micronucleated cells (%)” value with TK6 cells (p < 0.01) was “(2.13) ** %”.

By EC50 is commonly meant the concentration that produces a half-maximal response. As for `Cc1cn2nc(-c3cc(=O)n4cc(N5CCNC6(CC6)C5)ccc4n3)cc(C)c2n1` [Risdiplam], the “findings in 39-week toxicological study” value in the series on cynomolgus monkeys was “pathological intestinal and pancreatic changes, and irreversible retinal degeneration”. Besides, the “exposure cap, AUC0–24h in plasma” value in [1] is 1500 ng·h/mL. Also, in the series on FOXM1a, the “EC3.0× FOXM1a” value is listed as 24.2 (4.49–78.5) nM. Further, the micronucleus induction entry in [2] is “induces micronucleation in vitro and in vivo”. Moreover, the “Selectivity FOXM1b /FL-SMN2” value in the series with FOXM1b (EC50 of FOXM1b divided by EC1.5× of FL-SMN2) is on record as 8. The same molecule showed a concentration for a half-maximal effect (EC50) in the series with FOXM1b (Homo sapiens, Fibroblast, GM03813 fibroblasts, 24 h, 50% total target mRNA reduction, 95% CI in brackets) of 124 nM. Further, the “FOXM1 splicing in cynomolgus monkey cells” value in the series on FOXM1 is recorded as “FOXM1 mis-splicing was similarly observed”. In addition, the “EC1.5× FL-SMN2” value with FL-SMN2 mRNA is listed as 15.8 (8.81–32.8) nM. Also, the “EC4.0× FOXM1ΔC” value in the series on FOXM1ΔC is given as 38.9 (6.98–85.0) nM.
